Assay: Example 1: liver biomarkers (total bilirubin, ALT, AST, ALP) in short bowel syndrome patients, every four weeks for 24 weeks; also sorted by >5% change from baseline
Assay type: in vivo, Human
Design: AST (SGOT) Change from Baseline Median / ALT (SGPT) Median / TOTAL BILIRUBIN Median / TOTAL BILIRUBIN Change from Baseline Median / ALT (SGPT) Change from Baseline Median / AST (SGOT) Median: unit not given here
Conditions: for ALKALINE PHOSPHATASE change from baseline −5% <= and <=5%, percent of patients / ALT (SGPT) change from baseline <−5%, number of patients / ALT (SGPT) change from baseline <−5%, percent of patients / ALT (SGPT) change from baseline >5%, number of patients / ALT (SGPT) change from baseline >5%, percent of patients / ALT (SGPT) change from baseline −5% <= and <=5%, number of patients / ALT (SGPT) change from baseline −5% <= and <=5%, percent of patients / AST (SGOT) change from baseline <−5%, number of patients / AST (SGOT) change from baseline <−5%, percent of patients / AST (SGOT) change from baseline >5%, number of patients / AST (SGOT) change from baseline >5%, percent of patients / AST (SGOT) change from baseline −5% <= and <=5%, number of patients / AST (SGOT) change from baseline −5% <= and <=5%, percent of patients / TOTAL BILIRUBIN change from baseline <−5%, number of patients / TOTAL BILIRUBIN change from baseline <−5%, percent of patients / TOTAL BILIRUBIN change from baseline >5%, number of patients / TOTAL BILIRUBIN change from baseline >5%, percent of patients / TOTAL BILIRUBIN change from baseline −5% <= and <=5%, number of patients / TOTAL BILIRUBIN change from baseline −5% <= and <=5%, percent of patients / ALKALINE PHOSPHATASE change from baseline <−5%, number of patients / ALKALINE PHOSPHATASE change from baseline <−5%, percent of patients / ALKALINE PHOSPHATASE change from baseline >5%, number of patients / ALKALINE PHOSPHATASE change from baseline >5%, percent of patients / ALKALINE PHOSPHATASE change from baseline −5% <= and <=5%, number of patients: 0.05 mg/kg/day
Method: Human patients with short bowel syndrome were divided into three groups: a control group (16 total individuals) to receive placebo, an experimental group (35 total individuals) to receive teduglutide at 0.05 mg/kg/day throughout the study, and an experimental group (32 total individuals) to receive teduglutide at 0.1 mg/kg/day throughout the study. Patients were treated by subcutaneous injection of placebo or the appropriate dose of teduglutide. As individuals with short bowel syndrome are likely to experience associated liver and kidney disease, known biomarkers of liver and kidney function were monitored every four weeks, for 24 weeks. The liver biomarkers tested included total bilirubin, ALT and AST and ALP. The kidney biomarkers tested included urea nitrogen, creatinine and GFR. Before administration of placebo or teduglutide, diagnostic biomarker levels were tested to establish a baseline for each individual.
To visualize the effect of GLP-2 on the levels of the diagnostic biomarkers, the average change from baseline was calculated for the placebo and teduglutide treated groups for each visit after a baseline was established. The average change from baseline of each group is depicted in FIGS. 1-7. The numerical figures for each diagnostic biomarker at each time point are depicted in Table 1.
The efficacy of teduglutide in treating liver dysfunction was further tested by sorting the data into two groups: individuals with abnormal baseline values of liver diagnostic biomarkers; and individuals with normal baseline values of liver diagnostic biomarkers. The mean diagnostic biomarker change from baseline for these two groups is shown for ALT (FIGS. 5 and 6) and AST (FIGS. 7 and 8). […] These changes were significant when compared to baseline levels for the group, and when compared to placebo (see FIGS. 5 and 7).
The raw data for this sorting is reproduced in Table 2 below.

CC[C@H](C)[C@H](NC(=O)[C@H](Cc1ccccc1)NC(=O)[C@H](CC(=O)O)NC(=O)[C@H](CCCNC(=N)N)NC(=O)[C@H](C)NC(=O)[C@H](C)NC(=O)[C@H](CC(C)C)NC(=O)[C@H](CC(N)=O)NC(=O)[C@H](CC(=O)O)NC(=O)[C@H](CC(C)C)NC(=O)[C@@H](NC(=O)[C@@H](NC(=O)[C@H](CC(N)=O)NC(=O)[C@H](CCSC)NC(=O)[C@H](CCC(=O)O)NC(=O)[C@H](CC(=O)O)NC(=O)[C@H](CO)NC(=O)[C@H](Cc1ccccc1)NC(=O)[C@H](CO)NC(=O)CNC(=O)[C@H](CC(=O)O)NC(=O)CNC(=O)[C@@H](N)Cc1c[nH]cn1)[C@@H](C)O)[C@@H](C)CC)C(=O)N[C@@H](CC(N)=O)C(=O)N[C@@H](Cc1c[nH]c2ccccc12)C(=O)N[C@@H](CC(C)C)C(=O)N[C@H](C(=O)N[C@@H](CCC(N)=O)C(=O)N[C@H](C(=O)N[C@@H](CCCCN)C(=O)N[C@H](C(=O)N[C@H](C(=O)N[C@@H](CC(=O)O)C(=O)O)[C@@H](C)O)[C@@H](C)CC)[C@@H](C)O)[C@@H](C)CC [teduglutide]
ALKALINE PHOSPHATASE change from baseline −5% <= and <=5%, percent of patients (week 12): (5.7%)
ALT (SGPT) change from baseline <−5%, number of patients (week 12): 19
ALT (SGPT) change from baseline <−5%, percent of patients (week 12): (54.3%)
ALT (SGPT) change from baseline >5%, number of patients (week 12): 4
ALT (SGPT) change from baseline >5%, percent of patients (week 12): (11.4%)
ALT (SGPT) change from baseline −5% <= and <=5%, number of patients (week 12): 4
ALT (SGPT) change from baseline −5% <= and <=5%, percent of patients (week 12): (11.4%)
AST (SGOT) change from baseline <−5%, number of patients (week 12): 19
AST (SGOT) change from baseline <−5%, percent of patients (week 12): (54.3%)
AST (SGOT) change from baseline >5%, number of patients (week 12): 5
AST (SGOT) change from baseline >5%, percent of patients (week 12): (14.3%)
AST (SGOT) change from baseline −5% <= and <=5%, number of patients (week 12): 3
AST (SGOT) change from baseline −5% <= and <=5%, percent of patients (week 12): (8.6%)
TOTAL BILIRUBIN change from baseline <−5%, number of patients (week 12): 14
TOTAL BILIRUBIN change from baseline <−5%, percent of patients (week 12): (40.0%)
TOTAL BILIRUBIN change from baseline >5%, number of patients (week 12): 6
TOTAL BILIRUBIN change from baseline >5%, percent of patients (week 12): (17.1%)
TOTAL BILIRUBIN change from baseline −5% <= and <=5%, number of patients (week 12): 4
TOTAL BILIRUBIN change from baseline −5% <= and <=5%, percent of patients (week 12): (11.4%)
ALKALINE PHOSPHATASE change from baseline <−5%, number of patients (week 16): 20
ALKALINE PHOSPHATASE change from baseline <−5%, percent of patients (week 16): (57.1%)
ALKALINE PHOSPHATASE change from baseline >5%, number of patients (week 16): 6
ALKALINE PHOSPHATASE change from baseline >5%, percent of patients (week 16): (17.1%)
ALKALINE PHOSPHATASE change from baseline −5% <= and <=5%, number of patients (week 16): 2
ALKALINE PHOSPHATASE change from baseline −5% <= and <=5%, percent of patients (week 16): (5.7%)
ALT (SGPT) change from baseline <−5%, number of patients (week 16): 16
ALT (SGPT) change from baseline <−5%, percent of patients (week 16): (45.7%)
ALT (SGPT) change from baseline >5%, number of patients (week 16): 12
ALT (SGPT) change from baseline >5%, percent of patients (week 16): (34.3%)
ALT (SGPT) change from baseline −5% <= and <=5%, number of patients (week 16): 0
ALT (SGPT) change from baseline −5% <= and <=5%, percent of patients (week 16): (0.0%)
AST (SGOT) change from baseline <−5%, number of patients (week 16): 14
AST (SGOT) change from baseline <−5%, percent of patients (week 16): (40.0%)
AST (SGOT) change from baseline >5%, number of patients (week 16): 8
AST (SGOT) change from baseline >5%, percent of patients (week 16): (22.9%)
AST (SGOT) change from baseline −5% <= and <=5%, number of patients (week 16): 6
AST (SGOT) change from baseline −5% <= and <=5%, percent of patients (week 16): (17.1%)
TOTAL BILIRUBIN change from baseline <−5%, number of patients (week 16): 14
TOTAL BILIRUBIN change from baseline <−5%, percent of patients (week 16): (40.0%)
TOTAL BILIRUBIN change from baseline >5%, number of patients (week 16): 9
TOTAL BILIRUBIN change from baseline >5%, percent of patients (week 16): (25.7%)
TOTAL BILIRUBIN change from baseline −5% <= and <=5%, number of patients (week 16): 3
TOTAL BILIRUBIN change from baseline −5% <= and <=5%, percent of patients (week 16): (8.6%)
ALKALINE PHOSPHATASE change from baseline <−5%, number of patients (week 20): 22
ALKALINE PHOSPHATASE change from baseline <−5%, percent of patients (week 20): (62.9%)
ALKALINE PHOSPHATASE change from baseline >5%, number of patients (week 20): 4
ALKALINE PHOSPHATASE change from baseline >5%, percent of patients (week 20): (11.4%)
ALKALINE PHOSPHATASE change from baseline −5% <= and <=5%, number of patients (week 20): 1
ALKALINE PHOSPHATASE change from baseline −5% <= and <=5%, percent of patients (week 20): (2.9%)
ALT (SGPT) change from baseline <−5%, number of patients (week 20): 17
ALT (SGPT) change from baseline <−5%, percent of patients (week 20): (48.6%)
ALT (SGPT) change from baseline >5%, number of patients (week 20): 9
ALT (SGPT) change from baseline >5%, percent of patients (week 20): (25.7%)
ALT (SGPT) change from baseline −5% <= and <=5%, number of patients (week 20): 1
ALT (SGPT) change from baseline −5% <= and <=5%, percent of patients (week 20): (2.9%)
AST (SGOT) change from baseline <−5%, number of patients (week 20): 17
AST (SGOT) change from baseline <−5%, percent of patients (week 20): (48.6%)
AST (SGOT) change from baseline >5%, number of patients (week 20): 6
AST (SGOT) change from baseline >5%, percent of patients (week 20): (17.1%)
AST (SGOT) change from baseline −5% <= and <=5%, number of patients (week 20): 4
AST (SGOT) change from baseline −5% <= and <=5%, percent of patients (week 20): (11.4%)
TOTAL BILIRUBIN change from baseline <−5%, number of patients (week 20): 12
TOTAL BILIRUBIN change from baseline <−5%, percent of patients (week 20): (34.3%)
TOTAL BILIRUBIN change from baseline >5%, number of patients (week 20): 7
TOTAL BILIRUBIN change from baseline >5%, percent of patients (week 20): (20.0%)
TOTAL BILIRUBIN change from baseline −5% <= and <=5%, number of patients (week 20): 6
TOTAL BILIRUBIN change from baseline −5% <= and <=5%, percent of patients (week 20): (17.1%)
ALKALINE PHOSPHATASE change from baseline <−5%, number of patients (week 24): 21
ALKALINE PHOSPHATASE change from baseline <−5%, percent of patients (week 24): (60.0%)
ALKALINE PHOSPHATASE change from baseline >5%, number of patients (week 24): 4
ALKALINE PHOSPHATASE change from baseline >5%, percent of patients (week 24): (11.4%)
ALKALINE PHOSPHATASE change from baseline −5% <= and <=5%, number of patients (week 24): 0
ALKALINE PHOSPHATASE change from baseline −5% <= and <=5%, percent of patients (week 24): (0.0%)
ALT (SGPT) change from baseline <−5%, number of patients (week 24): 18
ALT (SGPT) change from baseline <−5%, percent of patients (week 24): (51.4%)
ALT (SGPT) change from baseline >5%, number of patients (week 24): 4
ALT (SGPT) change from baseline >5%, percent of patients (week 24): (11.4%)
ALT (SGPT) change from baseline −5% <= and <=5%, number of patients (week 24): 4
ALT (SGPT) change from baseline −5% <= and <=5%, percent of patients (week 24): (11.4%)
AST (SGOT) change from baseline <−5%, number of patients (week 24): 17
AST (SGOT) change from baseline <−5%, percent of patients (week 24): (48.6%)
AST (SGOT) change from baseline >5%, number of patients (week 24): 6
AST (SGOT) change from baseline >5%, percent of patients (week 24): (17.1%)
AST (SGOT) change from baseline −5% <= and <=5%, number of patients (week 24): 3
AST (SGOT) change from baseline −5% <= and <=5%, percent of patients (week 24): (8.6%)
TOTAL BILIRUBIN change from baseline <−5%, number of patients (week 24): 8
TOTAL BILIRUBIN change from baseline <−5%, percent of patients (week 24): (22.9%)
TOTAL BILIRUBIN change from baseline >5%, number of patients (week 24): 10
TOTAL BILIRUBIN change from baseline >5%, percent of patients (week 24): (28.6%)
TOTAL BILIRUBIN change from baseline −5% <= and <=5%, number of patients (week 24): 4
TOTAL BILIRUBIN change from baseline −5% <= and <=5%, percent of patients (week 24): (11.4%)
ALT (SGPT) Change from Baseline Median (0.10 mg/kg/day, DW4): −6.5
ALT (SGPT) Median (0.10 mg/kg/day, DW4): 30.0
